Test results taken from EP1000039B1 (Wyeth Holdings Corporation, priority 1997, dated 1999).
≈ marks a conversion by molar mass, not a printed value. Read-outs that look alike come from different tables or passages of the source.

Columns and labels:
A2780DDP = test: Inhibition of Cancer Cell Growth (Sulforhodamine B); assay type: cell-based, Human; conditions: 48 hours exposure; for IC50: Homo sapiens, read-out: Inhibition of Cancer Cell Growth as Measured by Cell Number (IC50) A2780DDP
Method: (§1) After 48 hours exposure to test compounds, cells were fixed with trichloroacetic acid, and stained with Sulforhodamine B. After washing with trichloroacetic acid, bound dye was solubilized in 10 mM Tris base and optical density was determined using plate reader. Under conditions of the assay the optical density is proportional to the number of cells in the well. […] The test procedure is described in details by Philip Skehan et. al. J.Natl. Canc. […]

A2780S = test: as above; assay type: cell-based, Human; conditions: 48 hours exposure; for IC50: Homo sapiens, read-out: Inhibition of Cancer Cell Growth as Measured by Cell Number (IC50) A2780S
Method: as §1

A431 = test: as above; assay type: cell-based, Human; conditions: for IC50: Homo sapiens, A-431, 48 hours exposure, read-out: Inhibition of Cancer Cell Growth as Measured by Cell Number (IC50) A431
Method: as §1

LOX = test: as above; assay type: cell-based, Human; conditions: 48 hours exposure; for IC50: Homo sapiens, read-out: Inhibition of Cancer Cell Growth as Measured by Cell Number (IC50) LOX
Method: as §1

MB435 = test: as above; assay type: cell-based, Human; conditions: 48 hours exposure; for IC50: Homo sapiens, read-out: Inhibition of Cancer Cell Growth as Measured by Cell Number (IC50) MB435
Method: as §1

MCF7 = test: as above; assay type: cell-based, Human; conditions: 48 hours exposure; for IC50: Homo sapiens, read-out: Inhibition of Cancer Cell Growth as Measured by Cell Number (IC50) MCF7
Method: as §1

SKBR3 = test: as above; assay type: cell-based, Human; conditions: for IC50: Homo sapiens, SK-BR-3, 48 hours exposure, read-out: Inhibition of Cancer Cell Growth as Measured by Cell Number (IC50) SKBR3
Method: as §1

SW620 = test: as above; assay type: cell-based, Human; conditions: for IC50: Homo sapiens, SW-620, 48 hours exposure, read-out: Inhibition of Cancer Cell Growth as Measured by Cell Number (IC50) SW620
Method: as §1

[1] = target: T1, His-tagged cytoplasmic domain of EGFR (Homo sapiens, UniProt P00533); test: Inhibition of Epidermal Growth Factor Receptor Kinase (EGF-R) using recombinant enzyme, RR-SRC peptide phosphorylation; assay type: biochemical
T1 construct: containing the EGFR cDNA encoding amino acids 645 - 1186 preceded by Met-Ala-(His)6; Met-Ala-(His)6 (N); made in house; host or cells: Sf9 insect cells, recombinant baculovirus vHcEGFR52
Method: The enzyme used in this assay is the His-tagged cytoplasmic domain of EGFR. […] Sf9 cells in 100 mm plates were infected at an moi of 10 pfu/cell and cells were harvested 48 h post infection. A cytoplasmic extract was prepared using 1% Triton X-100 and applied to Ni-NTA column. After washing the column with 20 mM imidazole, HcEGFR was eluted with 250 mM imidazole (in 50 mM Na2HPO4, pH 8.0, 300 mM NaCl). Fractions collected were dialyzed against 10 mM HEPES, pH 7.0, 50 mM NaCl, 10% glycerol, 1ug/mL antipain and leupeptin and 0. 1 mM Pefabloc SC. The protein was frozen in dry ice/methanol and stored -70°C.
For the enzyme reaction, 10 uL of each inhibitor (at various concentrations) were added to each well of a 96-well plate. To this was added 3 uL of enzyme (1: 10 dilution in 10mM HEPES, pH 7.4 for final conc. of 1:120). This was allowed to sit for 10 min on ice and was followed by the addition of 5 ul peptide (80 uM final conc.), 10ul of 4X Buffer (Table A), 0.25 uL ^33P-ATP and 12 uL H2O. The reaction was allowed to run for 90 min at room temperature and was followed by spotting the entire volume on to precut P81 filter papers. The filter discs were washed 2X with 0.5% phosphoric acid and radioactivity was measured using a liquid scintillation counter.

[2] = recombinant enzyme, average of the number of tests, read-out: IC50

T1 sequence (P00533 669-1210): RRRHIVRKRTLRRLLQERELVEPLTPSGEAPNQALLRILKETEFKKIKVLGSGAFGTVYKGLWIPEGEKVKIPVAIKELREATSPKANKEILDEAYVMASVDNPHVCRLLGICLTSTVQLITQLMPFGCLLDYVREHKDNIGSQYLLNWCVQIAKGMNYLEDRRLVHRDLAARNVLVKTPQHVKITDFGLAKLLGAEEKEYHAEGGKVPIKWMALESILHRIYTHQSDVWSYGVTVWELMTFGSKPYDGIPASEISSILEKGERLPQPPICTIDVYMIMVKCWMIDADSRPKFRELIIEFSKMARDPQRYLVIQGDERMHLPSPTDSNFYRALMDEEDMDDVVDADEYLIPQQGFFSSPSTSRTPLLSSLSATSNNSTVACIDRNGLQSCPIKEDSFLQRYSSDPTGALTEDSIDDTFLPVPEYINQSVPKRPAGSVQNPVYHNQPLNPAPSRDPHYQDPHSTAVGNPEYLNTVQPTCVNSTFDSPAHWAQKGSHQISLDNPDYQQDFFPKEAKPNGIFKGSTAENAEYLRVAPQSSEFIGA

Row | Inhibition of Cancer Cell Growth as Measured by Cell Number (IC50) A2780DDP (A2780DDP) [µg/mL] | Inhibition of Cancer Cell Growth as Measured by Cell Number (IC50) A2780S (A2780S) [µg/mL] | Inhibition of Cancer Cell Growth as Measured by Cell Number (IC50) A431 (A431; 48 hours exposure) [µg/mL] | Inhibition of Cancer Cell Growth as Measured by Cell Number (IC50) LOX (LOX) [µg/mL] | Inhibition of Cancer Cell Growth as Measured by Cell Number (IC50) MB435 (MB435) [µg/mL] | Inhibition of Cancer Cell Growth as Measured by Cell Number (IC50) MCF7 (MCF7) [µg/mL] | Inhibition of Cancer Cell Growth as Measured by Cell Number (IC50) SKBR3 (SKBR3; 48 hours exposure) [µg/mL] | Inhibition of Cancer Cell Growth as Measured by Cell Number (IC50) SW620 (SW620; 48 hours exposure) [µg/mL] | IC50 [1, 2] [nM] | Molecule | IC50 (A2780DDP) [µg/mL] | IC50 (A2780S) [µg/mL] | IC50 (A431) [µg/mL] | IC50 (LOX) [µg/mL] | IC50 (MB435) [µg/mL] | IC50 (MCF7) [µg/mL] | IC50 (SKBR3) [µg/mL] | IC50 (SW620) [µg/mL] | IC50 [1] [nM]
1 | 43 | 22 | 0.01 | 46 | 45 | 59 | <0.01 | 52 |  | 4-Diethylamino-but-2-enoic acid [4-(3-bromo-phenylamino)-quinazolin-6-yl]-amide [Example 67] |  |  |  |  |  |  |  |  | 
2 |  |  |  |  |  |  |  |  | 5 | O=C(C#CCCl)Nc1ccc2ncnc(Nc3cccc(Br)c3)c2c1 [Example 12, 4-Chloro-but-2-ynoic acid [4-(3-bromo-phenylamino)-quinazolin-6-y]-amide] | 0.07 (≈ 0.168 µM) | 0.03 (≈ 0.0722 µM) | 0.03 (≈ 0.0722 µM) | 0.04 (≈ 0.0962 µM) | 0.39 (≈ 0.938 µM) | 0.49 (≈ 1.18 µM) | < 0.01 | 0.06 (≈ 0.144 µM) | 
3 |  |  |  |  |  |  |  |  |  | O=C(C#CCN1CCOCC1)Nc1ccc2ncnc(Nc3cccc(Br)c3)c2c1 [Example 19, 4-Morpholin-4-yl-but-2-ynoic acid [4-(3-bromo-phenylamino)-quinazolin-6-yl]-amide] | 3.32 (≈ 7.12 µM) | 4.37 (≈ 9.37 µM) | 0.02 (≈ 0.0429 µM) | 3.55 (≈ 7.61 µM) | 5.95 (≈ 12.8 µM) | 6.36 (≈ 13.6 µM) | 0.003 (≈ 0.00643 µM) | 1.1 (≈ 2.36 µM) | 50
4 |  |  |  |  |  |  |  |  | 0.31 | COCC#CC(=O)Nc1ccc2ncnc(Nc3cccc(Br)c3)c2c1 [Example 23, 4-Methoxy-but-2-ynoic acid [4-(3-bromo-phenylamino)-quinazolin-6-yl]-amide] | 0.06 (≈ 0.146 µM) | 0.12 (≈ 0.292 µM) | 0.05 (≈ 0.122 µM) | 0.02 (≈ 0.0486 µM) | 0.8 (≈ 1.95 µM) | 0.5 (≈ 1.22 µM) | 0.06 (≈ 0.146 µM) | 0.06 (≈ 0.146 µM) | 
5 |  |  |  |  |  |  |  |  |  | CCN1CCN(CC#CC(=O)Nc2ccc3ncnc(Nc4cccc(Br)c4)c3c2)CC1 [Example 28, 4-(4-Ethyl-piperazin-1-yl)-but-2-ynoic acid [4-(3-bromophenylamino)-quinazolin-6-yl]-amide] | 0.56 (≈ 1.13 µM) | 0.84 (≈ 1.7 µM) | 0.6 (≈ 1.22 µM) | 1.94 (≈ 3.93 µM) | 1.61 (≈ 3.26 µM) | 3.09 (≈ 6.26 µM) | 0.1 (≈ 0.203 µM) | 2.38 (≈ 4.82 µM) | 5.5
6 |  |  |  |  |  |  |  |  | 2 | COCCN(CC#CC(=O)Nc1ccc2ncnc(Nc3cccc(Br)c3)c2c1)CCOC [Example 31, 4-[Bis-(2-methoxy-methyl]-amino]-but-2-ynoic acid [4-(3-bromophenylamino)-quinazolin-6-yl]-amide] | 0.6 (≈ 1.17 µM) | 0.2 (≈ 0.39 µM) | 0.01 (≈ 0.0195 µM) | 0.5 (≈ 0.976 µM) | 0.7 (≈ 1.37 µM) |  | < 0.01 | 0.4 (≈ 0.781 µM) | 
7 |  |  |  |  |  |  |  |  | 35 | CN1CCN(CC#CC(=O)Nc2ccc3ncnc(Nc4cccc(Br)c4)c3c2)CC1 [Example 34, 4-(4-Methyl-piperazin-1-yl]-but-2-ynoic acid [4-(3-bromophenylamino)-quinazolin-6-yl]-amide] |  |  |  |  |  |  |  |  | 
8 |  |  |  |  |  |  |  |  | 4.5 | COCCN(C)CC#CC(=O)Nc1ccc2ncnc(Nc3cccc(Br)c3)c2c1 [Example 37] |  |  |  |  |  |  |  |  | 

Row | Molecule | Inhibition of Cancer Cell Growth as Measured by Cell Number (IC50) A2780DDP (A2780DDP) [µg/mL] | Inhibition of Cancer Cell Growth as Measured by Cell Number (IC50) A2780S (A2780S) [µg/mL] | Inhibition of Cancer Cell Growth as Measured by Cell Number (IC50) A431 (A431; 48 hours exposure) [µg/mL] | Inhibition of Cancer Cell Growth as Measured by Cell Number (IC50) LOX (LOX) [µg/mL] | Inhibition of Cancer Cell Growth as Measured by Cell Number (IC50) MB435 (MB435) [µg/mL] | Inhibition of Cancer Cell Growth as Measured by Cell Number (IC50) MCF7 (MCF7) [µg/mL] | Inhibition of Cancer Cell Growth as Measured by Cell Number (IC50) SKBR3 (SKBR3; 48 hours exposure) [µg/mL] | Inhibition of Cancer Cell Growth as Measured by Cell Number (IC50) SW620 (SW620; 48 hours exposure) [µg/mL] | IC50 [1, 2] [nM] | IC50 (A2780DDP) [µg/mL] | IC50 (A2780S) [µg/mL] | IC50 (A431) [µg/mL] | IC50 (LOX) [µg/mL] | IC50 (MB435) [µg/mL] | IC50 (MCF7) [µg/mL] | IC50 (SKBR3) [µg/mL] | IC50 (SW620) [µg/mL] | IC50 [1] [nM]
9 | CC(C)(C)[Si](C)(C)OCC#CC(=O)Nc1ccc2ncnc(Nc3cccc(Br)c3)c2c1 [Example 15, 4-(tert-Butyl-dimethyl-silanyloxy)-but-2-ynoic acid [4-(3-bromo-phenylamino)quinazolin-6-yl]-amide] |  |  |  |  |  |  |  |  | 6 | 0.05 (≈ 0.0978 µM) | 0.02 (≈ 0.0391 µM) | 0.04 (≈ 0.0782 µM) | 0.03 (≈ 0.0587 µM) | 0.42 (≈ 0.821 µM) | 0.45 (≈ 0.88 µM) | 0.38 (≈ 0.743 µM) | 0.02 (≈ 0.0391 µM) | 
